Results taken from the NIST ThermoML archive (doi:10.1021/je1003466).
Values joined by “and” are separate entries in the source; they are usually repeats but may differ in a detail not shown here. Identical values can stand only once.

Test: mn = molality of the nth substance listed, in mol/kg
Conditions: 298.15 K, 101 kPa, Liquid

CNC=O [N-methylformamide] + O
Conditions | mass density
m1 = 0.1996 | 997.54 kg/m3
m1 = 0.2 | 997.53 kg/m3 and 997.55 kg/m3
m1 = 0.3493 | 997.91 kg/m3
m1 = 0.5018 | 998.28 kg/m3
m1 = 0.5044 | 998.28 kg/m3
m1 = 0.5343 | 998.34 kg/m3
m1 = 0.9779 | 999.42 kg/m3
m1 = 0.9919 | 999.46 kg/m3
m1 = 1.011 | 999.49 kg/m3
m1 = 1.499 | 1000.63 kg/m3
m1 = 1.5 | 1000.62 kg/m3
m1 = 1.505 | 1000.65 kg/m3
m1 = 2.006 | 1001.79 kg/m3
m1 = 2.011 | 1001.79 kg/m3
m1 = 2.012 | 1001.79 kg/m3
m1 = 2.47 | 1002.77 kg/m3
m1 = 2.497 | 1002.77 kg/m3
m1 = 2.513 | 1002.86 kg/m3
m1 = 3.022 | 1003.9 kg/m3
m1 = 3.05 | 1003.95 kg/m3
m1 = 3.068 | 1004 kg/m3
m1 = 3.496 | 1004.81 kg/m3
m1 = 3.499 | 1004.82 kg/m3 and 1004.81 kg/m3
m1 = 3.989 | 1005.73 kg/m3
m1 = 3.992 | 1005.74 kg/m3
m1 = 3.997 | 1005.73 kg/m3
